# Where no end group is shown, it is not given here.
# How the values were obtained:
# FGF-2 [1] = molecular target: T1, FGF-2 (Homo sapiens, UniProt P09038); experiment: Grating-coupled interferometry (GCI); format: binding; conditions: FGF-2 over immobilized biotinylated CXCL9(74-103), 25 °C, pH 7.4; mean ± SEM, n = 3
# T1 construct: purchased R&D Systems
# Method: GCI experiments were performed on a Creoptix WAVEdelta system (Creoptix AG, Wädenswil, Switzerland), which is a label-free surface biosensor system for the characterization of molecular interactions. 4PCP-STA chips (Creoptix AG) were used, which contain a quasi-planar polycarboxyl-matrix with pre-immobilized streptavidin. The running buffer for the experiments was PBS supplemented with 30 mM NaCl, 15 mM L-Arginine, 0.015% (v/v) Tween® 20 and 0.05 mg/mL BSA at pH 7.4 for reducing nonspecific binding. Chips were conditioned using borate buffer (100 mM sodium borate, 1 M NaCl, pH 9.0). Capture was performed by injecting biotinylated CXCL9(74-103) at a concentration of 2 µg/mL and a flow rate of 10 µL/minute over the chip surface, until a density of +/− 160 was reached. After capture of biotinylated CXCL9(74-103), binding with FGF-2 was studied by injecting an FGF-2 concentration series over the chip surface. […] A reference channel was blocked in the same way. Injections of the FGF-2 analyte were performed at 25 °C, with an association and dissociation time of 120 seconds and a flow rate of 40 µL/min. Absence of mass-transport limitation was verified by repeating the experiment at 50 µL/minute. A 1:3 dilution series with six dilutions (4.53 nM, 13.6 nM, 40.7 nM, 122 nM, 367 nM, 1.10 µM; all in duplicate) was analyzed. […]
# HMVECs = experiment: In vitro toxicity assay (LIVE/DEAD viability/cytotoxicity); format: cell-based, human; conditions: 0.3 or 3 µM, 24 h, calcein-AM/EthD-1, n = 4
# Method: HMVECs were seeded in MCDB131 medium supplemented with 3% (v/v) FCS at 8 × 10^3 cells/well in a black, clear bottom 96-well plate coated with 0.1% (v/v) gelatin in PBS. The next day, cells were washed and incubated with control medium (vide supra) alone or in the presence of 0.3 or 3 µM of CXCL9(74-103) or CXCL9(86-103) for 24 h. The negative control cells were treated with 2% (v/v) Triton™ X-100 to induce cell death […] after the start of the experiment, i.e., 1 h prior to the addition of the LIVE/DEAD stain. The toxicity of the peptides was assessed using the LIVE/DEAD viability/cytotoxicity kit (Invitrogen, Carlsbad, CA, USA), according to the manufacturer’s instructions. At 24 h, calcein-acetoxymethyl ester (AM) and ethidium homodimer-1 (EthD-1) in 0.4% (v/v) FCS in DMEM FluoroBrite (Gibco) were added to all wells and the fluorescence was measured in the IncuCyte S3 live cell imaging system (Essen BioScience, Ltd.; Newark, UK).
# FGF-2 [2] = conditions: cited from earlier work
# Text: Earlier studies that report on targeting HS-mediated interactions most commonly rely on HS mimetics that either mask HS for GF binding or directly interact with the GF, preventing it from binding to HS [39]. […] Pagano et al. reported that the small molecule inhibitor SM27, derived from the FGF-2-binding region of thrombospondin-1 (TSP-1), selectively bound the heparin-binding site of FGF-2 ...
# [3] = system: EGFR and α3β1 integrin / syndecan-4; conditions: cited from earlier work
# Text: Syndecan-4, the most abundant mammalian syndecan, has been described to function as an independent receptor for several heparin-binding growth factors such as FGFs, VEGFs and PDGFs. Upon ligand binding, the HSPGs oligomerize and initiate signaling components such as mammalian target of rapamycin (mTOR), RAC-α serine/threonine-protein kinase (AKT1) and the Rho family of GTPases, which are r ...
# T1 sequence (P09038 143-288): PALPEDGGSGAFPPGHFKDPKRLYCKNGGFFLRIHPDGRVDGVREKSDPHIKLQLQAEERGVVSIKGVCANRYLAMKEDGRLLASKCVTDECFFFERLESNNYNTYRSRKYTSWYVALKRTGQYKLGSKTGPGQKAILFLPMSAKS
substance,measurement,setting,value
KKKQKNGKKHQKKKVLKVRKSQRSRQKKTT [CXCL9(74-103)],koff,FGF-2 [1],0.00207 s⁻¹
same,kon,FGF-2 [1],20000 M⁻¹ s⁻¹
same,cell viability / toxicity,HMVECs,without inducing any cell toxicity
TSP-2: another TSP (thrombospondin) with anti-angiogenic activity,interaction with FGF-2,FGF-2 [2],able to interact with FGF-2 and interfered with HS and FGFR1 binding
synstatin (SSTNEGFR): a peptide based on the EGFR interaction motifs,displacement from syndecan and cell migration,[3],displaces the RTK and α3β1 integrin from the syndecan and prevents cell migration
